In patent US7247714B2, “Protection against oxidative stress and inflammation by a cytoprotective response element” (Atherogenics, Inc., priority 2001, dated 2007):
Entries after “also recorded” stand apart in the source; their conditions may differ.

How the values were obtained:
p3xCPRE/Luc [1] = assay: Activation of p3xCPRE/Luc by small molecular weight organic compounds (Table 6); type: cell-based, human; conditions: luciferase activity 16 hours after exposure
Protocol: In the in vitro assay system described above, a stable HeLa cell line was generated that contains a stably-integrated copy of the CPRE-Luc gene.
HMECs and HeLa cells were transiently transfected with 1 μg of 3xCPRE-Luc and 0.1 μg of pRL-SV40. One day after transfection, cells were treated with the compounds listed in Table 6 Luciferase activities were determined 16 hours after exposure to the compounds. To generate stable HeLa cell lines that contain a stably-integrated copy of the CPRE-Luc gene, HeLa cells were transfected with p3xCPRE-Luc plus pcDNA-LacZ-Hyg (an expression vector containing the hygromycin drug resistance gene) using SuperFeet transfection reagent. Two days after transfection, cells were cultured in hygromycin (400 μg/ml)-containing selection medium until individual colonies were identified. The colonies were expanded and the presence of CPRE-Luc-containing clones was examined by inducible luciferase activity. […]

p3xCPRE/Luc [2] = assay: p3xCPRE/Luc reporter, transient transfection in HMEC cells; type: cell-based, human; conditions: Compound A 10 μM
Protocol: (§1) In an effort to determine the utility of the CPRE-Luc reporter construct for the identification of small molecular weight compounds that activate the CPRE, the p3xCPRE/Luc reporter was transiently transfected into both HeLa and endothelial cells (HMECs). […] Similar results were obtained in HeLa cells with both t-BHQ and compound A (FIG. 12b).
(§2) HMECs and HeLa cells were transiently transfected with 1 μg of 3xCPRE-Luc and 0.1 μg of pRL-SV40. One day after transfection, cells were treated with t-BHQ or compound A. Luciferase activities were determined 16 hours after exposure to tBHQ. To generate stable HeLa cell lines that contain a stably-integrated copy of the CPRE-Luc gene, HeLa cells were transfected with p3xCPRE-Luc plus pcDNA-LacZ-Hyg (an expression vector containing the hygromycin drug resistance gene) using SuperFect transfection reagent. Two days after transfection, cells were cultured in hygromycin (400 μg/ml)-containing selection medium until individual colonies were identified. The colonies were expanded and the presence of CPRE-Luc-containing clones was examined by inducible luciferase activity. All experiments are an average of at least three independent determinations for each experimental sample.

p3xCPRE/Luc [3] = assay: p3xCPRE/Luc reporter, transient transfection in HeLa cells; type: cell-based, human
Protocol: HMEC cells (passage 20) and HeLa cells were seeded into 6 well plates and were grown to approximately 60-70% confluency. Cells were transfected with 2 μg (HeLa) or 1 μg (HMEC) each of p3xCPRE/Luc reporter and Nrf-2 expression vector (an expression vector containing the full-length murine Nrf-2 gene under the control of the CMV promoter (Asakura & Karino (1990) Circ Res, 66:1045-1066). Cells were cultured for an additional 48 hours, and luciferase activity was determined (Promega). An average of at least three independent determinations were made for each experimental sample. Results are expressed as ratio of firefly/renilla luciferase.
as §1, §2

CPRE promoter = assay: Stable HeLa cell line with stably-integrated CPRE-Luc gene; type: cell-based, human
Protocol: Although transient transfection methods are useful for understanding molecular mechanisms of gene expression and cellular biology, they are not suitable for high-throughput screening of libraries of compounds. Therefore, a stable HeLa cell line was generated that contains a stably-integrated copy of the CPRE-Luc gene.
as §2

VCAM-1 = assay: TNF-α-activated cell surface expression of VCAM-1 in cell culture models; type: cell-based; conditions: read-out: IC50, inhibition of TNF-α-activated cell surface expression of VCAM-1
[4] = test system: murine model of allergen-induced peritonitis; assay: Murine model of allergen-induced peritonitis (Type 1 hypersensitivity), eosinophil recruitment; type: in vivo, mouse; conditions: Compound A 50 mg/kg/d intravenous, 1 or 4 hours prior to ovalbumin challenge
Protocol: To evaluate the anti-inflammatory potential of compound A, a murine model of Type 1 hypersensitivity was used. In this model mice are sensitized to ovalbumin and subsequently challenged with ovalbumin by intraperitoneal injection. This leads to eosinophil recruitment and accumulation in the peritoneal cavity 24-48 hours after the challenge.
6-8 week old Balb/c mice (weighing 20-30 g) were given subcutaneous injections of ovalbumin in alum (0.4 ml of 100 μg ovalbumin and 3.3 mg of Alum Inject) on days 0 and 7. The mice were challenged on day 14 with an intraperitoneal injection of ovalbumin (10 μg in 0.2 ml saline). The mice were sacrificed and peritoneal lavage fluid collected 48 hours after the challenge. The peritoneal fluid was concentrated and slide smears made using a cytospin centrifuge. Slides were stained with Diff-Quik and differential counts obtained by counting 300 cells. Compound A was administered by intravenous injection, in a vehicle composed of 95% Liposyn and 5% Tween 20, 4 or 1 hour prior to challenge. Compound A was compared to dexamethosone administered orally at a dose of 2.5 mg/kg/d.
In a common allergic inflammation, balb/C mice were divided into two groups: control/vehicle and Compound G treated. They were then sensitized to ovalbumin on days 0 and 7 with a subcutaneous injection of ovalbumin absorbed in aluminum hydroxide. The treated group was dosed i.v. 50 mg/kg in liposyn/tween and vehicle one day prior to challenge. The mice were then challenged with an intraperitoneal injection of ovalbumin on day 14 and sacrificed 48 hrs post-challenge. Peritoneal fluid was collected and spun down onto slides. Slides were stained with DiffQuik and a differential performed.

[5] = test system: murine model of aerosolized ovalbumin-induced asthma; assay: Mouse asthma model, airway eosinophilia and hyperreactivity; type: in vivo
Protocol: Male BALB-C mice, 6 weeks of age, were randomly assigned to one of following groups: ova/ova, vehicle control, dexamethasone (3 mg/kg) treatment, and Compound A. Animals were weighed on day 0, 7, 12 and 14 and were given access to food and water ad libidum. Mice were sensitized intraperitoneally with 8 μg of ovalbumin and 1 mg of aluminum hydroxide on Day 0 and Day 5. The animals were exposed to aerosolized ovalbumin (0.5%) twice on Day 12 (1 hr & 10 minutes per exposure). The ovalbumin exposures were separated by at least 4 hours. Differentials were performed on bronchoaveolar lavage fluid on Day 14 to determine % eosinophils. Compound A was orally administered daily at a dose of 300 mg/kg from time of sensitization to termination of study to the Compound A group.

[6] = test system: methylated BSA-induced model of delayed type hypersensitivity; assay: Mouse delayed type hypersensitivity model (methylated BSA), paw swelling; type: in vivo; conditions: Compound A 100 mg/kg intraperitoneal at -24, -1 and +6 hrs from challenge; paw weight 24 hours later
Protocol: Balb/C mice were divided into two groups: control/vehicle and treated. They were sensitized intradermally on day 0 with methylated BSA (metBSA), and then challenged with metBSA on day 7 in the right hind paw. Compound A was administered at a dose of 100 mg/kg to the treated group by intraperitoneal injection −24, −1 and +6 hrs from the time of challenge. All animals were sacrificed 24 hours later and the left and right hind paws weighed. The left hind paw weight was subtracted from the right hind paw to give the paw weight increase.

## COc1cc(OC)c(-c2cc3ccccc3s2)cc1/C=C/C(=O)c1cc(OC)c(OC)c(OC)c1 [Compound A, 3-(5-Benzo-[b]-thiophene-2-yl-2,4-dimethoxy-phenyl)-1-(3,4,5-trimethoxy-phenyl)propenone]
p3xCPRE/Luc [1]
  CPRE Activity: concentration to achieve a two-fold induction of CPRE activity over control: 4.5 µM
p3xCPRE/Luc [2]
  p3xCPRE/Luc activity (induction of transcription from the CPRE): greater than two-fold; also recorded: significantly increased
p3xCPRE/Luc [3]; Compound A 10 μM
  p3xCPRE/Luc activity: significantly increased
p3xCPRE/Luc [3]; compound A 15 μM (FIG. 9c)
  p3xCPRE/Luc activity: significantly increased
p3xCPRE/Luc [3]; transient transfection, 5, 10 and 20 μM (FIG. 13)
  p3xCPRE/Luc activity, concentration-response: dose-dependent response; also recorded: significantly increased
CPRE promoter; Hela cells, 1.25, 2.5, 5, 10, 20 and 40 μM (FIG. 14)
  CPRE/Luc activity, percent increase over control (vehicle) levels, concentration-response: significantly elevated in a concentration-dependent manner
CPRE promoter; stable HeLa cell line (FIG. 14)
  Concentration of maximum activation of the CPRE promoter: approximately 20 μM
VCAM-1
  IC50: ~1400 nM
[4]
  Eosinophil levels in peritoneal fluid (percent eosinophils): significantly decreased
[4]; listed as compound A
  Eosinophil levels in peritoneal fluid (percent eosinophils): significantly significant reduction
[5]; Compound A 300 mg/kg oral daily, Day 14, p<0.05
  Inhibition of eosinophilia in bronchoaveolar lavage fluid compared with vehicle controls: 48%
[5]; Compound A 300 mg/kg/d oral
  Eosinophil levels in bronchoaveolar lavage fluid: significantly decreased
[5]; Compound A 300 mg/kg/d oral, 300 mg/kg/day
  Lung function (airway hyperreactivity to methacholine): significantly improved lung function
[6]
  Inhibition of paw swelling compared with the vehicle controls: 79%
